Test results as given in BindingDB's records for doi:10.1021/jm001055e (Friedrich-Alexander University, 2001).

biological target: T1, D(4) dopamine receptor (Homo sapiens, UniProt P21917); test: Ability to displace [3H]spiperone from dopamine receptor D4.4 expressed in CHO-K1 cells
T1 sequence (P21917 whole entry): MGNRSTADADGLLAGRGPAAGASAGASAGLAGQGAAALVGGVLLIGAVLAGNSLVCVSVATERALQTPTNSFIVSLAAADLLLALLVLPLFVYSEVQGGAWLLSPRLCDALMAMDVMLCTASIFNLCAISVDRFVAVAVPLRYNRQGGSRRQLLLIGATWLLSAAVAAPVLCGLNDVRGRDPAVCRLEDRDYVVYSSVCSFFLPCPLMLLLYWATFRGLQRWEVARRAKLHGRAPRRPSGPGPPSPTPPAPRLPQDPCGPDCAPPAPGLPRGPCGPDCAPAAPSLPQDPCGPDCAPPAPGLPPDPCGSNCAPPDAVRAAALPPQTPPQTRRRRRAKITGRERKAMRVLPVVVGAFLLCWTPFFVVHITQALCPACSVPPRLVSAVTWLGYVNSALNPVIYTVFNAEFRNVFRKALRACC

SMILES	Ki
CCN1CCN(Cc2cnn3ccccc23)CC1	23900 nM
FC(F)(F)c1cccc(N2CCN(Cc3cnn4ccccc34)CC2)c1	1.91 nM
Clc1ccc(N2CCN(Cc3ccccc3)CC2)cc1	251 nM
Clc1cccc(N2CCN(Cc3cnn4ccc5ccccc5c34)CC2)c1	794 nM
Clc1ccc(N2CCN(Cc3cc[nH]c3)CC2)cc1	38.9 nM
Clc1ccc(N2CCN(Cc3cnn4c(I)cccc34)CC2)cc1	5.01 nM
Clc1cccc(N2CCN(Cc3cnn4c3ccc3ccccc34)CC2)c1	218 nM
Clc1ccc(N2CCN(Cc3ccc[nH]3)CC2)cc1	26.3 nM
C#Cc1ccc(N2CCN(Cc3cnn4ccccc34)CC2)cc1	4.37 nM
Clc1ccc(N2CCN(Cc3cnn4ccccc34)CC2)cc1Cl	5.62 nM
Fc1ccc(N2CCN(Cc3cnn4ccccc34)CC2)cc1	20 nM
Clc1ccc(N2CCN(Cc3cc4ccccc4[nH]3)CC2)cc1	18.2 nM
OCc1ccc2c(CN3CCN(c4ccccc4)CC3)cnn2c1	19.5 nM
Cc1cccn2ncc(CN3CCN(c4ccc(Cl)cc4)CC3)c12 [3-[4-(4-Chloro-phenyl)-piperazin-1-ylmethyl]-4-methyl-pyrazolo[1,5-a]pyridine]	50.1 nM
C#Cc1cccc2c(CN3CCN(c4ccc(Cl)cc4)CC3)cnn12 [3-[4-(4-Chloro-phenyl)-piperazin-1-ylmethyl]-7-ethynyl-pyrazolo[1,5-a]pyridine]	1.23 nM
Cc1cccc2c(CN3CCN(c4ccc(Cl)cc4)CC3)cnn12 [4-(4-Chloro-phenyl)-1-(7-methyl-pyrazolo[1,5-a]pyridin-3-ylmethyl)-piperazin-1-ium]	2.69 nM
N#CC(C#N)=Cc1ccc(CN2CCN(c3ccc(Cl)cc3)CC2)[nH]1 [4-(4-Chloro-phenyl)-1-[5-(2,2-dicyano-vinyl)-1H-pyrrol-2-ylmethyl]-piperazin-1-ium]	9.55 nM
Clc1ccc(N2CCN(Cc3cc4ccccn4n3)CC2)cc1 [4-(4-Chloro-phenyl)-1-pyrazolo[1,5-a]pyridin-2-ylmethyl-piperazin-1-ium]	2.19 nM
